Data as given in publication PMC5665643, “CHIP as a membrane-shuttling proteostasis sensor” (eLife, 2017).
“Also recorded” adds a separate entry of the source.

What was measured:
[1] = tested on: CHIP; experiment: Liposome pelleting assay, effect of lipids and HSP70-C on CHIP association; type: binding, Human
Method: (§1) Human recombinant full length CHIP and its truncated versions were purified from Escherichia coli BL21 cells using Glutathion Sepharose 4B (GE Healthcare). Sepharose-bound GST-CHIP was subjected to overnight treatment with PreScission protease and the released tag-free protein was collected. Size exclusion chromatography on a HiLoad Superdex 200 column (GE Healthcare) followed to ensure the purity and homogeneity of proteins. All CHIP variants were kept in HSP70 buffer (25 mM HEPES KOH pH 7.5, 150 mM KCl, 5 mM MgCl2, 5% glycerol, 1 mM DTT).
Human C-terminal HSP70 6xHis-tagged N-terminally was purified from Escherichia coli BL21 cells using 1 ml HisTrap column (GE Healthcare). Bound protein was eluted by applying an imidazole gradient. Fractions containing the protein were subjected to size exclusion chromatography using HiLoad Superdex 200 in HSP70 buffer. His-NQO1, His-UbcH5a, His-Uev1a and His-Ubc13 were purified similarly except that PBS/1 mM DTT was used during size exclusion chromatography. Purity of recombinant protein was evaluated by SDS-PAGE and Coomassie BB G-250 (CBB) staining. Concentration of proteins was determined measuring absorbance at 280 nm and using ProtParam (ExPASy) to calculate respective extinction coefficients. Proteins were aliquoted, snap-frozen and stored at −80°C.
Liposomes were prepared by mixing 1,2-dioleoyl-sn-glycero-3-phosphocholine (DOPC) with indicated amount (wt/wt) of either 1,2-dipalmitoyl-sn-glycero-3-phosphate (phosphatidic acid) or (wt/wt) 1,2-dipalmitoyl-sn-glycero-3-phosphoinositol-4-phosphate (PI4P) in a 1.5 ml reaction tube (Eppendorf). Lipid mixtures were dried under a nitrogen stream and kept for 1 hr under vacuum. Liposomes were rehydrated in 1 ml filtered reconstitution buffer (25 mM HEPES KOH pH 7.5, 50 mM NaCl) to a concentration of 10 mM lipids. Liposomes were reconstituted by shaking at 2000 rpm for 1 hr at 50°C, followed by sonication for 1 hr at 50°C in a water bath. The liposome suspension was subjected to five freeze-thaw cycles in liquid nitrogen to promote unilamellar vesicle formation, aliquoted in 200 µl and pulse-sonicated for 8 s at 45% output with MS72 sonotrode (Bandelin) to create a population of homogenously sized liposomes as determined using NanoSight (Malvern Instruments). Sonicated liposomes were pooled, aliquoted again, snap-frozen and stored at −80°C.
2 mM liposomes were mixed with 2 µM recombinant protein in 50 µl reconstitution buffer. The suspension was incubated shaking at 450 rpm for 30 min at 37°C. Liposomes with bound protein were sedimented by ultracentrifugation at 100,000 g for 30 min at 25°C. Liposome pellet was washed with 50 µl of reconstitution buffer and sedimented again at 100,000 g for 30 min at 25°C. The pellet was resuspended in 10 µl reconstitution buffer, resolved by SDS-PAGE and analyzed by CBB staining. Images were acquired with ChemiDoc MP imaging system and quantified using Image Lab 5.0 software (both from Bio-Rad Laboratories). For competition assays, indicated amounts of C-terminal HSP70 were preincubated with 2 µM CHIP for 20 min at 37°C prior to co-sedimentation.

[2] = tested on: CHIP; experiment: Lipid-binding assay (membrane-immobilized lipids, lipid arrays); parameters: species or system Human; settings: for CHIP binding to phospholipid on lipid array: lipid strips/PIP strips, 0.5 µg/ml wild-type chaperone-free CHIP, 1 hr at RT, anti-C-CHIP antibody
Method: as §1
Membrane-immobilized lipids (Membrane lipid strips P-6002 and PIP strips P-6001) were purchased from Echelon Research Laboratories. The strips were incubated with blocking buffer (3% fatty acid free BSA, 0.1% (v/v) Tween-20 in PBS pH 7.5) for 1 hr at RT. 0.5 µg/ml of purified wild-type or mutant CHIP was added in blocking buffer and incubated for 1 hr at RT. Strips were washed and bound proteins were detected using anti-C-CHIP antibody. For competition experiments, ten times molar excess of C-terminal HSP70 was added to CHIP in blocking buffer.

[3] = tested on: EGFP-CHIP in murine embryonic fibroblasts; experiment: EGFP-CHIP relocalization to membranes in murine embryonic fibroblasts (fluorescence microscopy); type: cell-based; settings: N = 3; for EGFP-CHIP relocalization to the plasma membrane: 20 μM inhibitor for 4 hr, 37°C, serum-free medium, without fixation, EGFP as control, ***p<0.001, chi-square
[4] = tested on: EGFP-CHIP-K30A in murine embryonic fibroblasts; experiment: Release of EGFP-CHIP-K30A from cellular membranes (PLD inhibitors); type: cell-based; settings: 12 hr inhibitor treatment in serum-free DMEM, without fixation; *p<0.05 (chi-square); N = 4
[5] = target: C-terminal Hsp70-interacting protein (CHIP), human recombinant full length, wild type, tag-free (human) (UniProt Q9UNE7)
[6] = target: T1, C-terminal Hsp70-interacting protein (CHIP), human recombinant full length, wild type, tag-free (human, UniProt Q9UNE7 1-303); experiment: ITC; 10 µM protein in the cell, 200 µM GPTIEEVD peptide in the syringe, 25 injections of 8 µl every 3 min, 37°C, HSP70 buffer (25 mM HEPES KOH pH 7.5, 150 mM KCl, 5 mM MgCl2, 5% glycerol, 1 mM DTT); independent binding model; settings: both partners purified
T1 construct: also called WT; wild-type CHIP; source: E. coli BL21, purified (Glutathion Sepharose 4B, PreScission protease, SEC on Superdex 200)
T1 sequence (looked up): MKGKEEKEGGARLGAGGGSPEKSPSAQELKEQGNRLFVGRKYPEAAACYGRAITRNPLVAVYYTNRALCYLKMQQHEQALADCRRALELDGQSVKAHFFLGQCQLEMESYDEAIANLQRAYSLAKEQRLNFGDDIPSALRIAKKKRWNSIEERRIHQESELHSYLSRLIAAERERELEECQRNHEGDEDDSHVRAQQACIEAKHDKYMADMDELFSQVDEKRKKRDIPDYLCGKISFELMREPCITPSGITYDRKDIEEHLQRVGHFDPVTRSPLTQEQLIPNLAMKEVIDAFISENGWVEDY

[7] = Liposome pelleting assay, binding of CHIP and truncated variants to liposomes; settings: N = 3
Excerpt: For mammalian expression of EGFP, the expression vector pEGFP-N1 from Clontech (Mountain View, CA) was used. N-terminal EGFP-CHIP fusion protein was constructed by cloning human CHIP coding sequence in pEGFP-C2 vector (Clontech) using HindIII and BamHI restriction sites. A fusion between the N-terminalβ−1,4-galactosyltransferase1 and EGFP was used as a marker of the Golgi apparatus, farnesylated EGFP as a marker of plasma membrane (both constructs from Clontech). Untagged and 3xFLAG-tagged human CHIP for mammalian expression were constructed in pCMV-10 vector (Sigma-Aldrich). HSP70 was amplified from human cDNA and cloned into pcDNA3. 1 expression vector without a tag. HSP70 lacking the last amino acid (HSP70ΔD) was prepared by site-directed mutagenesis. Vectors of full-length CHIP, UbcH5a and mutant NQO1 for bacterial expression were prepared as described ([Martínez-Limón et al., 2016]). The TPR domain bacterial expression vector (TPR) was created by exchanging glutamate152 codon to a stop codon in the full-length CHIP vector. CHIP without TPR domain (ΔTPR) was cloned by deleting the sequence between serine25 and argininge130 by means of PCR. […]
Liposomes were prepared by mixing 1,2-dioleoyl-sn-glycero-3-phosphocholine (DOPC) with indicated amount (wt/wt) of either 1,2-dipalmitoyl-sn-glycero-3-phosphate (phosphatidic acid) or (wt/wt) 1,2-dipalmitoyl-sn-glycero-3-phosphoinositol-4-phosphate (PI4P) in a 1.5 ml reaction tube (Eppendorf). […] The liposome suspension was subjected to five freeze-thaw cycles in liquid nitrogen to promote unilamellar vesicle formation, aliquoted in 200 µl and pulse-sonicated for 8 s at 45% output with MS72 sonotrode (Bandelin) to create a population of homogenously sized liposomes as determined using NanoSight (Malvern Instruments). […]
2 mM liposomes were mixed with 2 µM recombinant protein in 50 µl reconstitution buffer. […] The pellet was resuspended in 10 µl reconstitution buffer, resolved by SDS-PAGE and analyzed by CBB staining. Images were acquired with ChemiDoc MP imaging system and quantified using Image Lab 5.0 software (both from Bio-Rad Laboratories). […]

Molecule: HSP70-C: last 260 amino acids of human HSPA1A, C-terminal domain of HSP70
- inhibition of CHIP interaction with liposomes ([1]; 1 μM HSP70-C (substoichiometric), preincubated with 2 µM CHIP 20 min at 37°C, N = 4): efficiently prevented CHIP from interacting with liposomes
- CHIP association with liposomes, % of control ([1]; equimolar HSP70-C, preincubated with 2 µM CHIP 20 min at 37°C, N = 4): ca. 30%
- CHIP binding to lipid arrays in the presence of HSP70-C ([2]; ten-fold molar excess HSP70-C, 0.5 µg/ml CHIP, RT): blocks interaction of CHIP with phospholipids; also recorded: complete loss of binding to phosphatidylinositol monophosphates and only residual interaction with phosphatidic acid

Molecule: C=CCNC1=C2C[C@@H](C)C[C@H](OC)[C@H](O)[C@@H](C)/C=C(\C)[C@H](OC(N)=O)[C@@H](OC)/C=C\C=C(/C)C(=O)NC(=CC1=O)C2=O [17-AAG, 17-(Allylamino)−17-demethoxygeldanamycin]
- EGFP-CHIP relocalization to the plasma membrane [3]: mimic the heat shock effect in regard to CHIP relocalization to membranes in murine fibroblasts; also recorded: leads to the appearance of EGFP-CHIP, but not of EGFP, at the plasma membrane

Molecule: O=C(NCCN1CCC(n2c(=O)[nH]c3ccccc32)CC1)c1cc2cc(F)ccc2[nH]1 [FIPI]
- release of EGFP-CHIP-K30A from membranes into the cytosol [4]: efficiently released chaperone-free CHIP into the cytosol

Molecule: N#Cc1ccc(COC[C@H]2O[C@@H](n3c(NCc4ccc(Cl)c(Cl)c4)nc4c(N)ncnc43)[C@H](O)[C@@H]2O)cc1 [VER-155008]
- EGFP-CHIP relocalization to the plasma membrane [3]: mimic the heat shock effect in regard to CHIP relocalization to membranes in murine fibroblasts; also recorded: leads to the appearance of EGFP-CHIP, but not of EGFP, at the plasma membrane

Molecule: CCCCCCCCCCCCCCCC(=O)OC[C@H](COP(=O)(O)O[C@H]1[C@H](O)[C@@H](O)[C@H](OP(=O)(O)O)[C@@H](O)[C@H]1O)OC(=O)CCCCCCCCCCCCCCC [PI4P, 1,2-dipalmitoyl-sn-glycero-3-phosphoinositol-4-phosphate]
- CHIP association with DOPC-liposomes (pelleting), 1% PI4P ([1]; 1% PI4P, 2 mM liposomes, 2 µM CHIP, 30 min at 37°C, N = 3): weakly
- CHIP association with DOPC-liposomes (pelleting), 5% PI4P ([1]; 5% PI4P, 2 mM liposomes, 2 µM CHIP, 30 min at 37°C, ***p<0.001, N = 3): strongly enhanced association of liposomes with CHIP; also recorded: strongly enhance CHIP association with DOPC-liposomes
- CHIP binding to phospholipid on lipid array [2]: especially PI4P

Molecule: C[C@@H](CN1CCC(n2c(=O)[nH]c3cc(Cl)ccc32)CC1)NC(=O)c1ccc2ccccc2c1 [VU0155069]
- release of EGFP-CHIP-K30A from membranes into the cytosol [4]: efficiently released chaperone-free CHIP into the cytosol

Molecule: O[As](O)O [arsenite]
- CHIP relocalization to membranes [3]: does not induce CHIP relocalization to membranes in murine fibroblasts; also recorded: not induced by arsenite treatment

Molecule: C-terminal domain of HSP70, 260 amino acids (HSP70-C) (from UniProt P0DMV8 382-641) (domain or fragment)
- association of 2 µM CHIP with liposomes in the pelleting assay after preincubation with HSP70-C (1 µM, substoichiometric, to an equimolar amount), relative to the control without HSP70-C (% of the control) [5]: 30

Molecule: phosphatidylinositol-3,4,5-trisphosphate
- CHIP binding to phospholipid on lipid array [2]: no binding to phosphatidylinositol-3,4,5-trisphosphate detected

B1: C-terminal HSP70 octapeptide GPTIEEVD (peptide)
peptide: GPTIEEVD
notes: last eight residues of HSP70 (HSPA1A); also called HSP70 peptide; HSP70 C-terminal peptide; source: synthetic peptide (custom-synthetized by GenScript)
- Kd [6]: 5 µM

B2: TPR domain: glutamate152 codon exchanged to a stop codon in full-length CHIP (protein, UniProt Q9UNE7 1-151, looked up, fragment)
chain: MKGKEEKEGGARLGAGGGSPEKSPSAQELKEQGNRLFVGRKYPEAAACYGRAITRNPLVAVYYTNRALCYLKMQQHEQALADCRRALELDGQSVKAHFFLGQCQLEMESYDEAIANLQRAYSLAKEQRLNFGDDIPSALRIAKKKRWNSIE
modifications: TPR domain
notes: glutamate152 codon exchanged to a stop codon in full-length CHIP
- binding capacity versus full-length CHIP ([7]; 5% PA-containing DOPC-liposomes): still surpassed the full-length CHIP in binding capacity
- binding efficiency relative to full-length protein ([7]; isolated TPR domain, 20% PA-containing liposomes, 2 µM protein): ca. 160%
